US4875922A, “Pyrimidine derivatives” (Imperial Chemical Industries PLC, priority 1986, dated 1989)
Like-named read-outs stand apart in the source and are kept apart here.

Tests used:
Barley [1] = assay: Whole plant screen for plant growth regulator activity, barley (BR); type: in vivo, Barley (Atem); details: BR, 4000 ppm (4 kg/ha), visual score after 2-6 weeks; for T = Tillering or side shooting: * = decrease in tillering
Method in brief: (§1)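 Foliar spray, 4000 ppm (4 kg/ha, 1000 l/ha), tracksprayer. Glasshouse, 16 h light; MZ/RC 25/22° C., WW/BR 16/13° C. day/night. Visual morphological scoring at 2-6 wk vs formulation blank.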

Wheat = assay: Whole plant screen for plant growth regulator activity, wheat (WW); type: in vivo, Wheat (Timmo); details: WW, 4000 ppm (4 kg/ha), visual score after 2-6 weeks; for T = Tillering or side shooting: * = decrease in tillering
Method in brief: as §1

Rice [2] = assay: Whole plant screen for plant growth regulator activity, rice (RC); type: in vivo, Rice (Ishikari); details: 4000 ppm (4 kg/ha), visual score after 2-6 weeks; for T = Tillering or side shooting: * = decrease in tillering
Method in brief: as §1

Maize = assay: Whole plant screen for plant growth regulator activity, maize (MZ); type: in vivo, Maize (Earliking); details: 4000 ppm (4 kg/ha), visual score after 2-6 weeks
Protocol: Compounds 1 to 3 in Table 1 were tested for plant growth regulator activity against five species for various growth effects relevant to plant growth regulation.
The plant species used in this screen are presented in Table II with the leaf stage at which they were sprayed. Each chemical was applied at 4000 ppm (4 kg/ha in a 1000 l/ha field volume) using a tracksprayer and a SS8004E (Teejet) nozzle.
After spray the plants were grown in a glasshouse with 25° C. day/22° C. night temperatures and supplementary lighting was supplied when necessary (from mercury vapour lamps), to provide a 16 hour photoperiod. The exception to this were the temperate cereals, wheat and barley which were grown in 16° C. day/13° C. night temperatures.
After 2-6 weeks in the glasshouse, depending on the time of year, the plants were visually assessed for morphological characteristics. Formulation blanks were used as controls to assess the plants. […]

Apple [3] = assay: Whole plant screen for plant growth regulator activity, apple (AP); type: in vivo, Apple (Red Delicious); details: 4000 ppm (4 kg/ha), visual score after 2-6 weeks
Method in brief: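 Compounds sprayed at 4000 ppm (4 kg/ha in 1000 l/ha) by tracksprayer at a defined leaf stage. Plants then grown in glasshouse at 25° C. day/22° C. night (wheat and barley 16° C. day/13° C. night), 16 hour photoperiod. Morphology visually assessed after 2-6 weeks against formulation blanks.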

Rice [4] = assay: Intermediate Retardant Test, rice; type: in vivo, Rice (Ishikari); details: Oryza sativa, 672 h, read-out: Percentage Reduction in Height of Rice (Compared to formulation blank)
Method in brief: (§2)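 Overall spray at 500 and 2000 ppm (0.5 and 2 kg/ha^-1 at 1000 l/ha^-1); for apples, a 2000 ppm foliar-only spray was also compared with a 2000 ppm root drench. Rice grew in flooded 4" paddy pots, barley and apples in 4" pots. About 28 days after treatment, height (to top-most ligule, or to apex for apples) was recorded as % reduction versus formulation blank.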

Spring Barley = assay: Intermediate Retardant Test, spring barley; type: in vivo, Spring Barley (Atem/kym); details: Hordeum vulgare, 672 h, read-out: Percentage Reduction in Height of Spring Barley (Compared to formulation blank)
Method in brief: as §2

Apples [5] = assay: Intermediate Retardant Test, apples, overall spray; type: in vivo, Apples (Red Delicious); details: approximately 28 days, Table VIII
Source text: Three species are involved in this test RICE, SPRING-BARLEY and APPLES. The variety and growth stages at spray are outlined in Table V. Compounds were applied at 500 ppm and 2000 ppm respectively (0.5 kg and 2 kg/ha^-1 at a field volume of 1000 l/ha^-1) as an overall spray except in the case of certain tests on APPLES. This gives a foliar and root component in the test, i.e., this test will detect the activity of both root and foliar acting compounds. The intermediate retardant test on APPLES of which the results are given in Table IX was different, in that a foliar (only) spray at 2000 ppm was compared with a root drench, also at 2000 ppm. The rice was grown in 4" `paddy` pots, i.e., the roots and bottom of the stems are immersed in water under conditions corresponding to those in paddy fields. Spring barley and apples were grown in 4" pots. The plants were assessed for height to top-most ligule at approximately 28 days after treatment for spring barley and rice and for height to apex at approximately 28 days after the treatment for apples. In each case the result for the 500 ppm and 2000 ppm test for each compound is compared to the height of the formulation blank in that test, presented as a percentage reduction in height compared to the formulation blank.

Apples [6] = assay: Intermediate Retardant Test, apples, foliar spray compared with root drench; type: in vivo, Apples (Red Delicious); details: 672 h, side-by-side comparison with prior art compound, Table XII, read-out: Percentage Reduction in Height of Apples (Compared to formulation blank)
Method in brief: as §2

Tomato = assay: Whole plant screen for plant growth regulator activity, tomato (TO); type: in vivo, Tomato (Ailsa Craig); details: 4000 ppm (4 kg/ha), visual score after 2-6 weeks
Method in brief: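 Plant growth regulation scored visually 2–6 weeks post-spray, relative to formulation-blank controls, with growth at 25/22 °C day/night under 16 h light. Treatment: 4000 ppm (4 kg/ha, 1000 l/ha volume) track-sprayed onto Ailsa Craig tomato at the 2–2½ leaf stage, grown singly in 3-inch peat pots.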

Barley [7] = assay: Modified Intermediate Retardant Test, barley; type: in vivo, Barley (Atem); details: 2000 g/ha, overall spray, height to topmost ligule 21 days after treatment
Source text: (§3) The general Intermediate Retardant Test described in Example 62 was modified by the addition of Sunflowers (SR) and the variety and growth stages at spray are outlined in Table XIII. Apart from the changes indicated, growing conditions for barley, rice and apples were as in Example 62 and growing conditions for Sunflower were as for apples. Test compounds were applied to barley, rice and apples as whole plant (overall) sprays at a rate of 2000 g/ha. Test compounds were applied to sunflowers separately as a foliar only spray at a rate of 2000 g/ha and as a root drench at a rate of 2000 g/ha.
(§4) Barley and rice were assessed for height to topmost ligule 21 days after treatment; apples were assessed for height to apex at 21 days after treatment; and sunflowers were assessed for height to apex at 14 days after treatment. The results are expressed as percentage reduction in height compared with the formulation blank in Table XIV.

Rice [8] = assay: Modified Intermediate Retardant Test, rice; type: in vivo, Rice (Ishikari); details: 2000 g/ha, overall spray, height to topmost ligule 21 days after treatment
Source text: as §3, §4

Apple [9] = assay: Modified Intermediate Retardant Test, apples; type: in vivo, Apple (Red Delicious); details: 2000 g/ha, overall spray, height to apex 21 days after treatment
Source text: as §3, §4

Sunflower = assay: Modified Intermediate Retardant Test, sunflower; type: in vivo; details: 2000 g/ha, height to apex 14 days after treatment; for […] IN HEIGHT, SR (Foliar): foliar only spray; for […] IN HEIGHT, SR (Root): root drench
Source text: as §3, §4

[10] = overall spray, approximately 28 days, Table VI
[11] = side-by-side comparison with prior art compound, Table X
[12] = overall spray, approximately 28 days, Table VII
[13] = side-by-side comparison with prior art compound, Table XI

SMILES	G = Greening effect (Barley [1])	I = Interligular or internodal length reduction (Barley [1])	R = Retardation (Barley [1])	T = Tillering or side shooting (Barley [1])	G = Greening effect (Wheat)	I = Interligular or internodal length reduction (Wheat)	R = Retardation (Wheat)	T = Tillering or side shooting (Wheat)	G = Greening effect (Rice [2])	I = Interligular or internodal length reduction (Rice [2])	R = Retardation (Rice [2])	T = Tillering or side shooting (Rice [2])	G = Greening effect (Apple [3])	I = Interligular or internodal length reduction (Apple [3])	R = Retardation (Apple [3])	Percent reduction in rice height vs formulation blank at 500 ppm (Rice [4]; [10])	Percent reduction in rice height vs formulation blank at 500 ppm (Rice [4]; [11])	Percent reduction in rice height vs formulation blank at 2000 ppm (Rice [4]; [10])	percent reduction in plant height at 500 ppm (Spring Barley; [13])	percent reduction in plant height at 2000 ppm (Spring Barley; [12])	also measured
CCCC#CC(O)(c1cncnc1)C(C)C (stereo not drawn) [Compound 2, 2-methyl-1-(pent-1-yne)-1-(pyrimidin-5-yl)-propan-1-ol]	1 (10-30%)	3 (61-100%)	3 (61-100%)	3 (61-100%)	2 (31-60%)	3 (61-100%)	2 (31-60%)	2 (31-60%)	2 (31-60%)	3 (61-100%)	3 (61-100%)	3 (61-100%)	1 (10-30%)	2 (31-60%)	3 (61-100%)	18%	27%	46%	25%	20%	I = Interligular or internodal length reduction (Maize): 1 (10-30%); R = Retardation (Maize): 2 (31-60%); Percent reduction in rice height vs formulation blank at 2000 ppm (Rice [4]; [11]): 69%; percent reduction in plant height at 500 ppm (Spring Barley; [12]): 1%; percent reduction in plant height at 2000 ppm (Spring Barley; [13]): 59%; Percentage Reduction in Height of Apples (Compared to formulation blank) (Apples [5]; 500 ppm): 10.5%; Percentage Reduction in Height of Apples (Compared to formulation blank) (Apples [5]; 2000 ppm): 52.1%; percent reduction in plant height at 2000 ppm (Apples [6]; 2000 ppm (Foliar)): 41.8%; percent reduction in plant height at 2000 ppm (Apples [6]; 2000 ppm (Root)): 64.4%
CCCCCC#CC(O)(c1cncnc1)C(C)C (stereo not drawn) [Compound 23]	2 (31-60%)	3 (61-100%)	3 (61-100%)	1 (10-30%)	2 (31-60%)		2 (31-60%)														G = Greening effect (Tomato): 2 (31-60%); R = Retardation (Tomato): 2 (31-60%); […] IN HEIGHT, BR (Barley [7]): 29%; […] IN HEIGHT, RC (Rice [8]): 54%; […] IN HEIGHT, AP (Apple [9]): 50%; […] IN HEIGHT, SR (Foliar) (Sunflower): 2%; […] IN HEIGHT, SR (Root) (Sunflower): 45%
CCCCCC(O)(c1cncnc1)C(C)C (stereo not drawn) [Compound 3, 2-methyl-1-pentyl-1-(pyrimidin-5-yl)-propan-1-ol]	2 (31-60%)	3 (61-100%)	3 (61-100%)	3 (61-100%)	1 (10-30%)	3 (61-100%)	3 (61-100%)	2 (31-60%)	2 (31-60%)	2 (31-60%)	3 (61-100%)	1 (10-30%)	1 (10-30%)	2 (31-60%)	3 (61-100%)	17%	17%	47%	0%	11%	A = Apical damage (Maize): 1 (10-30%); Percentage Reduction in Height of Apples (Compared to formulation blank) (Apples [5]; 2000 ppm): 34.1%; percent reduction in plant height at 2000 ppm (Apples [6]; 2000 ppm (Foliar)): 14.2%; percent reduction in plant height at 2000 ppm (Apples [6]; 2000 ppm (Root)): 62.7%
CCC/C=C\C(O)(c1cncnc1)C(C)C (stereo not drawn) [Compound 25, 2-methyl-1-(pent-1-ene)-1-(pyrimidin-5-yl)-propan-1-ol]	3 (61-100%)	3 (61-100%)	3 (61-100%)	1*	2 (31-60%)	1 (10-30%)	1 (10-30%)														G = Greening effect (Tomato): 2 (31-60%); I = Interligular or internodal length reduction (Tomato): 1 (10-30%); R = Retardation (Tomato): 1 (10-30%); […] IN HEIGHT, BR (Barley [7]): 52%; […] IN HEIGHT, RC (Rice [8]): 55%; […] IN HEIGHT, AP (Apple [9]): 31%; […] IN HEIGHT, SR (Foliar) (Sunflower): 0%; […] IN HEIGHT, SR (Root) (Sunflower): 54%
